The text below walks through data of US20060093617A1, “Peptides for inducing a CTL and/or HTL response to hepatitis C virus” (Innogenetics, N.V., priority 2004, published 2006).

Molecules are shown by their SMILES. Where a SMILES comes first, the peptide text is derived from it.

The experiment concerns the target HLA-A02 (Homo sapiens, UniProt P04439, D140Y/D185E/D98H/E176V/E277Q/G131W/G231S/I119V/I121R/I166T/I218V/L300P/L318F/N151K/N90K/P208A/P217A/Q86G/Q94H/R138H/R169H/T345S). The experiment can be described thus: Competition binding assay using soluble HLA class I.
For `CC(C)C[C@H](NC(=O)[C@H](CS)NC(=O)[C@H](CO)NC(=O)[C@H](CC(C)C)NC(=O)[C@H](CC(C)C)NC(=O)[C@H](C)NC(=O)[C@H](CC(C)C)NC(=O)[C@H](CC(C)C)NC(=O)[C@@H](N)Cc1ccccc1)C(=O)O`, the IC50 – broadly, the concentration that inhibits the measured activity by half – turned out to be 136 nM and the Ki (commonly a measure of affinity in units of concentration, obtained from inhibition or displacement) worked out at 136 nM.

For `CC(C)C[C@H](NC(=O)[C@H](C)NC(=O)[C@H](CC(C)C)NC(=O)[C@H](CC(C)C)NC(=O)[C@@H](N)Cc1ccccc1)C(=O)N[C@@H](CC(C)C)C(=O)N[C@@H](CO)C(=O)N[C@@H](CS)C(=O)N[C@@H](CC(C)C)C(=O)N[C@H](C(=O)O)[C@@H](C)O`, the half-inhibitory concentration (IC50) was 132 nM and the affinity, expressed as Ki, was 132 nM.

In turn, `CC(C)C[C@H](NC(=O)[C@H](CC(C)C)NC(=O)[C@H](Cc1c[nH]c2ccccc12)NC(=O)CNC(=O)[C@H](C)NC(=O)[C@H](Cc1c[nH]c2ccccc12)NC(=O)CNC(=O)[C@H](CC(C)C)NC(=O)CN)C(=O)O` yielded a Ki of 27 nM.

In turn, `CC[C@H](C)[C@H](NC(=O)[C@H](CS)NC(=O)CNC(=O)[C@H](CC(C)C)NC(=O)[C@H](CC(C)C)NC(=O)CN)C(=O)N[C@H](C(=O)N[C@H](C(=O)N[C@@H](CO)C(=O)N[C@@H](CC(C)C)C(=O)O)[C@@H](C)O)[C@@H](C)CC` yielded an IC50 of 26 nM and a Ki of 26 nM.

In turn, `CC[C@H](C)[C@H](N)C(=O)N[C@@H](CCSC)C(=O)N[C@@H](Cc1ccc(O)cc1)C(=O)N[C@@H](C)C(=O)N1CCC[C@H]1C(=O)N[C@H](C(=O)N[C@@H](CC(C)C)C(=O)N[C@@H](Cc1c[nH]c2ccccc12)C(=O)N[C@@H](C)C(=O)O)[C@@H](C)O` displayed an IC50 of 46 nM and a Ki of 46 nM.

In turn, `CC[C@H](C)[C@H](NC(=O)[C@@H](NC(=O)[C@H](CC(C)C)NC(=O)[C@H](CS)NC(=O)[C@H](CO)NC(=O)[C@H](CC(C)C)NC(=O)[C@@H](N)CC(C)C)[C@@H](C)O)C(=O)N1CCC[C@H]1C(=O)N[C@@H](C)C(=O)O` displayed an IC50 of 12 nM and a Ki of 12 nM.

For `CC(C)C[C@H](NC(=O)[C@@H](NC(=O)[C@@H](N)CC(C)C)C(C)C)C(=O)N[C@@H](CC(N)=O)C(=O)N1CCC[C@H]1C(=O)N[C@@H](CO)C(=O)N[C@H](C(=O)N[C@@H](C)C(=O)N[C@@H](C)C(=O)O)C(C)C`, the Ki came to 1680 nM.

Compound `CC[C@H](C)[C@H](NC(=O)[C@@H](NC(=O)[C@@H](N)CC(N)=O)[C@@H](C)CC)C(=O)N[C@@H](CCSC)C(=O)N[C@@H](Cc1ccc(O)cc1)C(=O)N[C@@H](C)C(=O)N1CCC[C@H]1C(=O)N[C@H](C(=O)N[C@@H](CC(C)C)C(=O)O)[C@@H](C)O` displayed an IC50 of 70 nM and a Ki of 70 nM.

The compound `CC[C@H](C)[C@H](NC(=O)[C@@H](N)CCC(N)=O)C(=O)N[C@H](C(=O)NCC(=O)NCC(=O)N[C@H](C(=O)N[C@@H](Cc1ccc(O)cc1)C(=O)N[C@@H](CC(C)C)C(=O)N[C@@H](CC(C)C)C(=O)O)C(C)C)C(C)C` gave an IC50 of 228 nM.

For `CC(C)C[C@H](NC(=O)[C@@H](NC(=O)[C@@H](NC(=O)[C@H](CC(C)C)NC(=O)[C@@H](N)CCCNC(=N)N)C(C)C)C(C)C)C(=O)N[C@@H](C)C(=O)N[C@H](C(=O)N[C@@H](C)C(=O)N[C@H](C(=O)O)[C@@H](C)O)[C@@H](C)O`, the affinity, expressed as Ki, was 16700 nM.

`CC[C@H](C)[C@H](NC(=O)[C@H](Cc1c[nH]cn1)NC(=O)[C@@H](NC(=O)[C@H](CC(C)C)NC(=O)CNC(=O)[C@@H](NC(=O)[C@H](Cc1ccccc1)NC(=O)[C@@H](NC(=O)[C@@H](N)CO)C(C)C)[C@@H](C)O)[C@@H](C)O)C(=O)O` came in with a Ki of 84 nM.

For `CC(C)C[C@H](NC(=O)[C@H](CC(C)C)NC(=O)[C@@H]1CCCN1C(=O)[C@@H](NC(=O)[C@@H]1CCCN1C(=O)CNC(=O)[C@H](Cc1c[nH]cn1)NC(=O)[C@H](CC(C)C)NC(=O)[C@@H](N)[C@@H](C)O)[C@@H](C)O)C(=O)O`, the IC50 was 68 nM and the Ki is 68 nM.

Consider `CC[C@H](C)[C@H](NC(=O)[C@H](CC(N)=O)NC(=O)CNC(=O)[C@H](CC(C)C)NC(=O)[C@@H](N)Cc1c[nH]c2ccccc12)C(=O)N[C@H](C(=O)N[C@@H](CCSC)C(=O)N[C@@H](Cc1ccc(O)cc1)C(=O)N[C@@H](C)C(=O)O)[C@@H](C)CC`, for which the affinity corresponds to a Ki of 14.5 nM.

`CC[C@H](C)[C@H](NC(=O)[C@@H](N)Cc1ccc(O)cc1)C(=O)N1CCC[C@H]1C(=O)N[C@@H](CC(C)C)C(=O)N[C@H](C(=O)NCC(=O)N[C@@H](C)C(=O)N1CCC[C@H]1C(=O)N[C@@H](CC(C)C)C(=O)O)C(C)C` yielded an IC50 of 337 nM and a Ki of 77 nM.

In the case of `CC(C)C[C@H](NC(=O)[C@@H]1CCCN1C(=O)[C@H](Cc1c[nH]c2ccccc12)NC(=O)[C@@H]1CCCN1C(=O)[C@H](Cc1ccc(O)cc1)NC(=O)CNC(=O)[C@@H]1CCCN1C(=O)[C@H](CCC(N)=O)NC(=O)[C@H](C)N)C(=O)O` (H-AQPGYPWPL-OH; N-terminus and C-terminus assumed), the Ki is 382 nM.

On to `CC(C)C[C@H](NC(=O)[C@H](CCCNC(=N)N)NC(=O)[C@H](Cc1ccc(O)cc1)NC(=O)[C@@H]1CCCN1C(=O)[C@H](Cc1ccc(O)cc1)NC(=O)[C@H](CC(=O)O)NC(=O)[C@@H](NC(=O)[C@H](CC(C)C)NC(=O)[C@@H](N)CS)C(C)C)C(=O)O` (H-CLVDYPYRL-OH; N-terminus and C-terminus assumed), for which the IC50 amounted to 437 nM and the affinity corresponds to a Ki of 437 nM.

On to `CC(C)C[C@H](NC(=O)[C@H](Cc1ccccc1)NC(=O)[C@@H](NC(=O)[C@H](CO)NC(=O)CNC(=O)[C@H](CS)NC(=O)[C@H](CC(C)C)NC(=O)[C@@H](N)CC(=O)O)C(C)C)C(=O)N[C@H](C(=O)O)C(C)C` (H-DLCGSVFLV-OH; N-terminus and C-terminus assumed), for which the affinity, expressed as Ki, was 789 nM.

The compound `CC[C@H](C)[C@H](NC(=O)[C@@H](N)Cc1ccccc1)C(=O)N1CCC[C@H]1C(=O)N[C@H](C(=O)N[C@@H](CCC(=O)O)C(=O)N[C@@H](CO)C(=O)N[C@@H](CCSC)C(=O)N[C@@H](CCC(=O)O)C(=O)N[C@H](C(=O)O)[C@@H](C)O)C(C)C` (H-FIPVESMET-OH) registered an inhibition constant (Ki) of 934 nM.

Turning to `CSCC[C@H](NC(=O)CN)C(=O)N[C@@H](Cc1ccccc1)C(=O)N[C@@H](CC(=O)O)C(=O)N[C@@H](CO)C(=O)N[C@@H](CO)C(=O)N[C@H](C(=O)N[C@@H](CC(C)C)C(=O)N[C@@H](CS)C(=O)O)C(C)C` (H-GMFDSSVLC-OH), the IC50 came to 114 nM and the affinity, expressed as Ki, was 71 nM.

For the compound `CC[C@H](C)[C@H](N)C(=O)N[C@@H](CCSC)C(=O)N[C@@H](C)C(=O)N[C@@H](CS)C(=O)N[C@@H](CCSC)C(=O)N[C@@H](CO)C(=O)N[C@@H](C)C(=O)N[C@@H](CC(=O)O)C(=O)N[C@@H](CC(C)C)C(=O)O` (H-IMACMSADL-OH; N-terminus and C-terminus assumed), the IC50 came out at 66 nM and the affinity, expressed as Ki, was 66 nM.

`CC[C@H](C)[C@H](N)C(=O)N[C@@H](CCSC)C(=O)N[C@@H](C)C(=O)N[C@@H](CCCCN)C(=O)N[C@@H](CC(N)=O)C(=O)N[C@@H](CCC(=O)O)C(=O)N[C@H](C(=O)N[C@@H](Cc1ccccc1)C(=O)N[C@@H](CS)C(=O)N[C@H](C(=O)O)C(C)C)C(C)C` (H-IMAKNEVFCV-OH; N-terminus and C-terminus assumed) showed an IC50 of 199 nM and a Ki of 199 nM.

The compound `CC(C)C[C@H](NC(=O)[C@@H](NC(=O)[C@H](CC(C)C)NC(=O)[C@@H](NC(=O)[C@@H](N)CCCCN)C(C)C)C(C)C)C(=O)N[C@@H](CC(N)=O)C(=O)N1CCC[C@H]1C(=O)N[C@@H](CO)C(=O)N[C@H](C(=O)O)C(C)C` (H-KVLVLNPSV-OH) returned an IC50 of 50 nM and a Ki of 50 nM.

In turn, `CSCC[C@H](N)C(=O)N[C@@H](C)C(=O)N[C@@H](CC(C)C)C(=O)N[C@@H](Cc1ccc(O)cc1)C(=O)N[C@@H](CC(=O)O)C(=O)N[C@H](C(=O)N[C@H](C(=O)N[C@@H](CO)C(=O)N[C@H](C(=O)O)[C@@H](C)O)C(C)C)C(C)C` (H-MALYDVVST-OH; N-terminus and C-terminus assumed) registered a Ki of 1140 nM.

In the case of `CC[C@H](C)[C@H](NC(=O)[C@H](CO)NC(=O)[C@H](Cc1ccccc1)NC(=O)[C@H](CO)NC(=O)[C@H](CS)NC(=O)CNC(=O)[C@@H]1CCCN1C(=O)[C@H](CC(C)C)NC(=O)[C@@H](N)CC(N)=O)C(=O)O` (H-NLPGCSFSI-OH), the IC50 was found to be 83 nM and the inhibition constant (Ki) was 70 nM.

`CC[C@H](C)[C@H](NC(=O)[C@H](Cc1ccc(O)cc1)NC(=O)[C@H](CC(C)C)NC(=O)[C@@H](N)CCCNC(=N)N)C(=O)NCC(=O)NCC(=O)N1CCC[C@H]1C(=O)N[C@@H](CC(C)C)C(=O)N[C@H](C(=O)O)[C@@H](C)O` (H-RLYIGGPLT-OH): the affinity, expressed as Ki, was 536 nM.

`CSCC[C@H](NC(=O)[C@@H](N)CO)C(=O)N[C@H](C(=O)NCC(=O)N[C@@H](CC(N)=O)C(=O)N[C@@H](Cc1c[nH]c2ccccc12)C(=O)N[C@@H](C)C(=O)N[C@@H](CCCCN)C(=O)N[C@H](C(=O)O)C(C)C)C(C)C` (H-SMVGNWAKV-OH; N-terminus and C-terminus assumed) returned an IC50 of 158 nM and a Ki of 158 nM.

`CC[C@H](C)[C@H](NC(=O)[C@H](Cc1c[nH]cn1)NC(=O)[C@@H](NC(=O)[C@H](CC(C)C)NC(=O)CNC(=O)[C@@H](NC(=O)[C@H](Cc1ccccc1)NC(=O)[C@@H](NC(=O)[C@@H](N)CO)C(C)C)[C@@H](C)O)[C@@H](C)CC)C(=O)O` (H-SVFTGLIHI-OH): the IC50 turned out to be 101 nM.

Take `CC(C)C[C@H](NC(=O)[C@@H](NC(=O)[C@H](CO)NC(=O)[C@@H](NC(=O)[C@@H](N)C(C)C)C(C)C)[C@@H](C)O)C(=O)N1CCC[C@H]1C(=O)N[C@@H](CCC(N)=O)C(=O)N[C@@H](C)C(=O)N[C@H](C(=O)O)C(C)C` (H-VVSTLPQAV-OH; N-terminus and C-terminus assumed): the Ki came out at 884 nM.

`CC(C)C[C@H](NC(=O)[C@@H](N)Cc1ccc(O)cc1)C(=O)N[C@@H](Cc1ccccc1)C(=O)N[C@@H](CC(N)=O)C(=O)N[C@@H](Cc1c[nH]c2ccccc12)C(=O)N[C@@H](C)C(=O)N[C@H](C(=O)N[C@@H](CCCNC(=N)N)C(=O)N[C@H](C(=O)O)[C@@H](C)O)C(C)C` (H-YLFNWAVRT-OH; N-terminus and C-terminus assumed) gave an IC50 of 29 nM and an inhibitory constant (Ki) of 29 nM.
